Type in all cases: cell-based
For test [1], the target named is human TLR7 (Homo sapiens (Human), UniProt Q9NYK1). Description: TLR7 inhibition reporter assay (HEK-Blue, SEAP). As to conditions: HEK-Blue cells overexpressing human TLR7, gardiquimod 7.5 μM stimulation. Summed up:
(§1)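 Cells are treated with compound over a 0.05 nM–50 μM final range for 30 min at room temperature before agonist addition: gardiquimod at 7.5 μM for TLR7, R848 at 15.9 μM for TLR8, ODN2006 at 5 nM for TLR9. SEAP is measured after 22 h at 37 °C.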

Test [2] has as its target human TLR8 (Homo sapiens (Human), UniProt Q9NR97). Description: TLR8 inhibition reporter assay (HEK-Blue, SEAP). To be noted: HEK-Blue cells overexpressing human TLR8, R848 15.9 μM stimulation. A digest of the protocol:
as §1
For orientation: In a reporter assay the amount or activity of a reporter protein is the signal.

Test [3] deals with human TLR9 (Homo sapiens (Human), UniProt Q9NR96). Description: TLR9 inhibition reporter assay (HEK-Blue, SEAP). As to conditions: HEK-Blue cells overexpressing human TLR9, ODN2006 5 nM stimulation. A digest of the protocol:
as §1

A value given as a limit tells only on which side of the number the result lay.

Sequence of human TLR9 (Q9NR96 26-1032): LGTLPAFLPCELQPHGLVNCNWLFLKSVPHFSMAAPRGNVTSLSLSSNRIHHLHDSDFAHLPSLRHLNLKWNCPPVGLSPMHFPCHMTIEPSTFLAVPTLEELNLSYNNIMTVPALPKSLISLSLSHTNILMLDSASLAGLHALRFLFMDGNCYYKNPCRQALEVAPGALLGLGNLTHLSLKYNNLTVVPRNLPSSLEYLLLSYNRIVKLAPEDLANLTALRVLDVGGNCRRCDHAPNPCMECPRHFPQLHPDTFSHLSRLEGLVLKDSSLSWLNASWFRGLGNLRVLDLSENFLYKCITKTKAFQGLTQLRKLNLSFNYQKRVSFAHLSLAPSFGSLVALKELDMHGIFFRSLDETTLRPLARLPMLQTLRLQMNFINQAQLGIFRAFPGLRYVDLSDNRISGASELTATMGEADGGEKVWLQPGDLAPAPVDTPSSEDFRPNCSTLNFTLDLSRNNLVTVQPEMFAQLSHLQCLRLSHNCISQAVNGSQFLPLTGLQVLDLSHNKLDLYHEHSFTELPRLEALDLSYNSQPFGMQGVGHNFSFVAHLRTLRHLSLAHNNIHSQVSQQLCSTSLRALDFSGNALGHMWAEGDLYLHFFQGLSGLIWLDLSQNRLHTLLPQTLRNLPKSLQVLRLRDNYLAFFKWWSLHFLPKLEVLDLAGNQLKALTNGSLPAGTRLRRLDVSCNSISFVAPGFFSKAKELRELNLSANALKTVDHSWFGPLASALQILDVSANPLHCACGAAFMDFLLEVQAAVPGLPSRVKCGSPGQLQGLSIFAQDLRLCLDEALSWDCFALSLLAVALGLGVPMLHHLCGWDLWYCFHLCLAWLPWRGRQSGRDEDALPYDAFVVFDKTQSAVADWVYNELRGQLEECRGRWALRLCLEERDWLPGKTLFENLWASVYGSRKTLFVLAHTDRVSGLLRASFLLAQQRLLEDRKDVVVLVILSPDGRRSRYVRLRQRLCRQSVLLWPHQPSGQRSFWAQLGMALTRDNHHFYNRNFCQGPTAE
Sequence of human TLR7 (Q9NYK1 27-1049): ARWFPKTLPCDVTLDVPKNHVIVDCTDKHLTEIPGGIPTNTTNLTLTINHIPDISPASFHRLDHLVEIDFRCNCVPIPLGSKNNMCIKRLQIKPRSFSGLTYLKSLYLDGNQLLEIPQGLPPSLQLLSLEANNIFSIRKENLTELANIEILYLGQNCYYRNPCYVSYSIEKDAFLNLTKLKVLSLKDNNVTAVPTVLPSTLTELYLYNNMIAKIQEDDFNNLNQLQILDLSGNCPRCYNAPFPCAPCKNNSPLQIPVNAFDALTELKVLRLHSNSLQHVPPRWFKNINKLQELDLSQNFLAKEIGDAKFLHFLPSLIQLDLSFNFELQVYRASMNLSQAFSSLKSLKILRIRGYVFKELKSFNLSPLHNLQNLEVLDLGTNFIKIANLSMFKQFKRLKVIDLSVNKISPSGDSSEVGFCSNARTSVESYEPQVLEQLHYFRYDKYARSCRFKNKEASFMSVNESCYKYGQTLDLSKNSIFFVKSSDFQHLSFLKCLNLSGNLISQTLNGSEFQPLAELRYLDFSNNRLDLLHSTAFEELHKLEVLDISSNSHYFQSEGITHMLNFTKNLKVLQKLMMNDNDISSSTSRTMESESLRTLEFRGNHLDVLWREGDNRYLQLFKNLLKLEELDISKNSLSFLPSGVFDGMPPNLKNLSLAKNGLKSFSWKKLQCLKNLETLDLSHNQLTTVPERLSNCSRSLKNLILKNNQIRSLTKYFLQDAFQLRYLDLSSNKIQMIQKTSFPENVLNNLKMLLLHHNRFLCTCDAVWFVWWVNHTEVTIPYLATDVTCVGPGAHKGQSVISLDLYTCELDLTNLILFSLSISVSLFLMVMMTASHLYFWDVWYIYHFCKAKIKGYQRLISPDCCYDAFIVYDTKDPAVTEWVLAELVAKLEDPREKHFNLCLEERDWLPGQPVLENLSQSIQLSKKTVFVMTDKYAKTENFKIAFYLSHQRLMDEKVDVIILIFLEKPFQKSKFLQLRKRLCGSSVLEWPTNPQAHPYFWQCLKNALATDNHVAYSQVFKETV
Sequence of human TLR8 (Q9NR97 27-1041): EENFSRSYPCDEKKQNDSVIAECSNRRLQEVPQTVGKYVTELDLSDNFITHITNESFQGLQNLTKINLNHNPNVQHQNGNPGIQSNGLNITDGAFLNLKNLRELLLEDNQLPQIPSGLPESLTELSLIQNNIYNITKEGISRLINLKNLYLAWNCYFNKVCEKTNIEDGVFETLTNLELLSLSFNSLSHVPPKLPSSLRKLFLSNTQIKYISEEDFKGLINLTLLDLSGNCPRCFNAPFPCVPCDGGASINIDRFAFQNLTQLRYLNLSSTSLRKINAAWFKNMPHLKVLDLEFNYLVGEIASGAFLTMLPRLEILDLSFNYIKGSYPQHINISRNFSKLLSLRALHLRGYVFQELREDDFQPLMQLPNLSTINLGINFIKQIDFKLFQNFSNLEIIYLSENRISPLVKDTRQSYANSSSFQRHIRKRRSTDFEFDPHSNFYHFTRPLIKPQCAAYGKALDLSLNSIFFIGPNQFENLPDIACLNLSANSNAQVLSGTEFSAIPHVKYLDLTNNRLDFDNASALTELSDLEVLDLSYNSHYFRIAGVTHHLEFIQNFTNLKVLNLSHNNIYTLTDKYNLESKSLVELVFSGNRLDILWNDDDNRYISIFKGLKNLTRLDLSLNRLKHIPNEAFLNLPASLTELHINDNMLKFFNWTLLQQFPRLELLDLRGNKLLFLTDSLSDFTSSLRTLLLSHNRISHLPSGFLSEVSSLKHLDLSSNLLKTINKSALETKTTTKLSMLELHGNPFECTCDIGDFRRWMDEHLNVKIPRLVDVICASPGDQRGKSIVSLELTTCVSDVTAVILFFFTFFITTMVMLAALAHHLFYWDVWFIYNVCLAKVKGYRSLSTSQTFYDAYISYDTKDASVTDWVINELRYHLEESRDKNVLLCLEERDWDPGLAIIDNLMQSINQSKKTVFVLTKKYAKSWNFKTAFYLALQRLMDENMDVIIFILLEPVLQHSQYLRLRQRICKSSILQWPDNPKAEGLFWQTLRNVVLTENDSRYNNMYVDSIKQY

The term IC50 denotes the midpoint of a concentration-inhibition curve. Turning to `CC(C)CN1CCC(NC(=O)c2nnc(-c3ccc4[nH]c(-c5ccnc6[nH]ncc56)c(C(C)C)c4c3)o2)CC1` [Example 214, N-(1-isobutylpiperidin-4-yl)-5-(3-isopropyl-2-(1H-pyrazolo[3,4-b]pyridin-4-yl)-1H-indol-5-yl)-1,3,4-oxadiazole-2-carboxamide], the IC50 turned out to be 203 nM in test [1], 4.4 nM in test [2] and 686 nM in test [3].

Turning to `Cc1cc(-c2[nH]c3ccc(-c4nc(C(=O)N[C@H]5CC[C@H](N)CC5)co4)cc3c2C(C)C)cc(C)n1` [Example 282], the IC50 in test [1] came out at 72 nM; in test [2], 16 nM; in test [3], 2380 nM.

For the compound `Cc1cc(-c2[nH]c3ccc(-c4nnc(C5CCCN(C(C)C)C5)o4)cc3c2C(C)C)ccn1` (stereo not drawn) [Example 292, 2-(3-isopropyl-2-(2-methylpyridin-4-yl)-1H-indol-5-yl)-5-(1-isopropylpiperidin-3-yl)-1,3,4-oxadiazole], the IC50 in test [1] worked out at 44 nM; in test [2], 2.5 nM; in test [3], 551 nM.

In the case of `CNCCc1nnc(-c2ccc3[nH]c(-c4ccnc(C)c4)c(C(C)C)c3c2)o1` [Example 142, 2-(5-(3-isopropyl-2-(2-methylpyridin-4-yl)-1H-indol-5-yl)-1,3,4-oxadiazol-2-yl)-N-methylethan-1-amine], the 50% inhibitory concentration (IC50) in test [1] was 25 nM; in test [2] it was 1.7 nM; in test [3], 621 nM.

Turning to `COc1ccc(-c2[nH]c3ccc(-c4cnc(N5CCNCC5)cc4C)cc3c2C(C)C)cc1OC` [Example 419, 2-(3,4-dimethoxyphenyl)-3-isopropyl-5-(4-methyl-6-(piperazin-1-yl)pyridin-3-yl)-1H-indole], the IC50 stood at 50 nM in test [1], 14 nM in test [2] and 1390 nM in test [3].

In the case of `CCc1c(-c2ccc(OC)c(OC)c2)[nH]c2ccc(-c3nnc(C(N)=O)o3)cc12` [Example 41, 5-(2-(3,4-dimethoxyphenyl)-3-ethyl-1H-indol-5-yl)-1,3,4-oxadiazole-2-carboxamide], the IC50 in test [1] was 749 nM; in test [2] it was 173 nM; in test [3] it was above 50000 nM.

For `CC(C)c1c(-c2ccnc3[nH]ncc23)[nH]c2ccc(-c3ccnc4[nH]ncc34)cc12` [Example 177, 4,4′-(3-isopropyl-1H-indole-2,5-diyl)bis(1H-pyrazolo[3,4-b]pyridine)], the IC50 turned out to be 45 nM in test [1], 3.7 nM in test [2] and 24100 nM in test [3].

As for `Cc1cc(-c2[nH]c3ccc(-c4ccc(N)nc4)cc3c2C(C)C)cc(C)n1` [Example 236, 5-(2-(2,6-dimethylpyridin-4-yl)-3-isopropyl-1H-indol-5-yl)pyridin-2-amine], the IC50 stood at 13 nM in test [1], 2.7 nM in test [2] and 655 nM in test [3].

For the compound `COc1ccc(-c2[nH]c3ccc(-c4cnc(N5CCN(CC(C)C)CC5)cc4C)cc3c2C(C)C)cc1OC` [Example 418, 2-(3,4-dimethoxyphenyl)-5-(6-(4-isobutylpiperazin-1-yl)-4-methylpyridin-3-yl)-3-isopropyl-1H-indole], the 50% inhibitory concentration (IC50) in test [1] stood at 879 nM; in test [2] it was 41 nM; in test [3], 3540 nM.

For `COc1ccc(-c2[nH]c3ccc(-c4ccc(N5CCN(C(C)C)CC5)cc4)cc3c2C(C)C)cc1OC` [Example 382, 2-(3,4-dimethoxyphenyl)-3-isopropyl-5-(4-(4-isopropylpiperazin-1-yl)phenyl)-1H-indole], the half-inhibitory concentration (IC50) in test [1] was 157 nM; in test [2] it was 32 nM; in test [3], 917 nM.

Consider `COc1ccc(-c2[nH]c3ccc(-c4ccc(NC5CCN(C(C)C)CC5)cc4)cc3c2C(C)C)cc1OC` [Example 385, N-(4-(2-(3,4-dimethoxyphenyl)-3-isopropyl-1H-indol-5-yl)phenyl)-1-isopropylpiperidin-4-amine], for which the IC50 in test [1] is 181 nM; in test [2] it was 30 nM; in test [3], 5890 nM.

As to `Cc1cc(-c2[nH]c3ccc(-c4nnc(C5CCN(C(C)C)CC5)[nH]4)cc3c2C(C)C)ccn1` [Example 187, 3-isopropyl-5-(5-(1-isopropylpiperidin-4-yl)-4H-1,2,4-triazol-3-yl)-2-(2-methylpyridin-4-yl)-1H-indole], the figures for the IC50 in test [1], in test [2] and in test [3] were 70 nM, 6.7 nM and 4100 nM, respectively.

For `Cc1cc(-c2[nH]c3ccc(-c4nnc(C(=O)NC5CCN(C(C)C)CC5)s4)cc3c2C(C)C)ccn1` [Example 135, 5-(3-isopropyl-2-(2-methylpyridin-4-yl)-1H-indol-5-yl)-N-(1-isopropylpiperidin-4-yl)-1,3,4-thiadiazole-2-carboxamide], the IC50 was determined as 44 nM in test [1], 7.8 nM in test [2] and 1380 nM in test [3].

For `Cc1cc(-c2[nH]c3ccc(-c4nnc(C5CCN(C)CC5)o4)cc3c2C(C)C)cn2ncnc12` [Example 367, 2-(3-isopropyl-2-(8-methyl-[1,2,4]triazolo[1,5-a]pyridin-6-yl)-1H-indol-5-yl)-5-(1-methylpiperidin-4-yl)-1,3,4-oxadiazole], the half-inhibitory concentration (IC50) in test [1] turned out to be 0.37 nM; in test [2], 0.6 nM; in test [3] it was 673 nM.

As for `Cc1cc(-c2[nH]c3ccc(-c4nnc(C5CN6CCC5CC6)o4)cc3c2C(C)C)ccn1` (stereo not drawn) [Example 231, 2-(3-isopropyl-2-(2-methylpyridin-4-yl)-1H-indol-5-yl)-5-(quinuclidin-3-yl)-1,3,4-oxadiazole], the IC50 in test [1] was determined as 69 nM; in test [2] it was 5.9 nM; in test [3] it was 895 nM.

As for `CC(C)c1c(-c2ccnc3[nH]ncc23)[nH]c2ccc(-c3noc(C[C@@H]4CCCN4)n3)cc12` [Example 439, (S)-3-(3-isopropyl-2-(1H-pyrazolo[3,4-b]pyridin-4-yl)-1H-indol-5-yl)-5-(pyrrolidin-2-ylmethyl)-1,2,4-oxadiazole], the IC50 amounted to 134 nM in test [1], 3.3 nM in test [2] and 2140 nM in test [3].

Consider `COc1cc(-c2ccc3[nH]c(-c4ccnc5[nH]ncc45)c(C(C)C)c3c2)cnc1OC` [Example 434, 4-(5-(5,6-dimethoxypyridin-3-yl)-3-isopropyl-1H-indol-2-yl)-1H-pyrazolo[3,4-b]pyridine], for which the IC50 in test [1] turned out to be 124 nM; in test [2], 54 nM; in test [3] it was 45200 nM.

Turning to `CC(C)c1c(-c2ccnc(N)c2)[nH]c2ccc(-c3nnc(C(=O)N(C)C)o3)cc12` [Example 166, 5-(2-(2-aminopyridin-4-yl)-3-isopropyl-H-indol-5-yl)-N,N-dimethyl-1,3,4-oxadiazole-2-carboxamide], the figures for the IC50 in test [1], in test [2] and in test [3] were 284 nM, 47 nM and 29500 nM, respectively.

Turning to `COCCNCc1nnc(-c2ccc3[nH]c(-c4ccc(OC)c(OC)c4)c(C(C)C)c3c2)o1` [Example 109, N-((5-(2-(3,4-dimethoxyphenyl)-3-isopropyl-1H-indol-5-yl)-1,3,4-oxadiazol-2-yl)methyl)-2-methoxyethan-1-amine], the half-inhibitory concentration (IC50) was 4160 nM in test [1], 301 nM in test [2] and above 50000 nM in test [3].

On to `COc1ccc(-c2[nH]c3ccc(-c4cccc(C(=O)N5CCNCC5)c4)cc3c2C(C)C)cc1OC` [Example 1, 2-(3,4-dimethoxyphenyl)-5-[3-(piperazine-1-carbonyl)phenyl]-3-(propan-2-yl)-1H-indole], for which the IC50 in test [1] amounted to 107 nM; in test [2], 9 nM; in test [3], 2060 nM.

`CC(C)c1c(-c2ccnc3[nH]ncc23)[nH]c2ccc(-c3nnc(C4CCN(CC(=O)N(C)C)CC4)o3)cc12` [Example 87, 2-(4-(5-(3-isopropyl-2-(1H-pyrazolo[3,4-b]pyridin-4-yl)-1H-indol-5-yl)-1,3,4-oxadiazol-2-yl)piperidin-1-yl)-N,N-dimethylacetamide]: the results for the IC50 in test [1], in test [2] and in test [3] were 549 nM, 9.8 nM and 5660 nM, respectively.

Take `COc1ccc(-c2[nH]c3ccc(-c4nnc(CN5CCC[C@H]5C(N)=O)o4)cc3c2C(C)C)cc1OC` [Example 122, (S)-1-((5-(2-(3,4-dimethoxyphenyl)-3-isopropyl-1H-indol-5-yl)-1,3,4-oxadiazol-2-yl)methyl)pyrrolidine-2-carboxamide]: the values for the IC50 in test [1], in test [2] and in test [3] were 225 nM, 279 nM and above 50000 nM, respectively.

Consider `C#CCN(C)Cc1nnc(-c2ccc3[nH]c(-c4ccc(OC)c(OC)c4)c(C(C)C)c3c2)o1` [Example 123, N-((5-(2-(3,4-dimethoxyphenyl)-3-isopropyl-1H-indol-5-yl)-1,3,4-oxadiazol-2-yl)methyl)-N-methylprop-2-yn-1-amine], for which the IC50 in test [1] is 703 nM; in test [2], 213 nM; in test [3] it was above 50000 nM.

As to `Cc1cc(-c2[nH]c3ccc(-c4nc(C(=O)NC5CCN(C(C)C)CC5)c(C)o4)cc3c2C(C)C)ccn1` [Example 191, 2-(3-isopropyl-2-(2-methylpyridin-4-yl)-1H-indol-5-yl)-N-(1-isopropylpiperidin-4-yl)-5-methyloxazole-4-carboxamide], the figures for the IC50 in test [1], in test [2] and in test [3] were 113 nM, 13 nM and 3410 nM, respectively.

Turning to `COc1ccc(-c2[nH]c3ccc(-c4cccc(C(=O)N5CCN(CC(=O)NC(C)C)CC5)c4)cc3c2CC(F)(F)F)cc1OC` [Example 30, 2-(4-(3-(2-(3,4-dimethoxyphenyl)-3-(2,2,2-trifluoroethyl)-1H-indol-5-yl)benzoyl)piperazin-1-yl)-N-isopropylacetamide], the IC50 was found to be 1990 nM in test [1], 165 nM in test [2] and 14300 nM in test [3].
